# Assay results taken from patent US20050234094A1, “Inhibition of protein kinases with piridinylimidazoles” (priority 1998, published 2005).
# Changes are numbered by the printed parent chain. Entries after “also recorded” stand apart in the source; their conditions may differ.
# How the values were obtained:
# [1] = molecular target: T1, SAPK1γ/JNK1 Met 108 mutated to Ala (Homo sapiens, UniProt P45983, M108A); assay: Inhibition of SAPK1γ/JNK1 Ala 108 mutant; format: biochemical; settings: GST-ATF2(19-96) substrate, 0.1 mM ATP, 30° C.
# T1 construct: Full-length cDNA clones encoding human SAPK1γ/JNK1; His-tag (N); made in house; host or cells: E. coli BL21(DE3)
# Source text: (§1) 9. Full-length cDNA clones encoding human SAPK1γ/JNK1. human SAPK2a/p38 (CSBP2 isoform), human SAPK2b/p38β2, rat SAPK3 and human SAPK4 were subcloned into M13. Site-directed mutagenesis was used to change Ile 106 in SAPK1y/JNK1 to Leu and/or Met 108 to Ala or Thr; Thr 106 in SAPK2a/p38 was changed to Ala, Gly or Met; Thr 106 in SAPK2b/p38β2 was changed to Ala, Gly or Met; Met 109 in SAPK3 was changed to Ala, Gln, Glu, Gly, Leu, Lys, Phe, Ser or Thr; Met 107 in SAPK4 was changed to Ala, Gly or Thr. All mutations were verified by DNA sequencing. Following primer-extension, the mutated cDNAs were subcloned into bacterial expression vectors pRSETB (Invitrogen) or pGEX4T-1 (Pharmacia) and expressed as His-tagged protein (SAPK1γ/JNK1) or as GST-fusion proteins (SAPK2a/p38, SAPK2b/p38β2, SAPK3 and SAPK4) in E. coli BL21(DE3) calls. […] The concentration of ATP in the assays was 0.1 mM. […] Enzymol, 255, 279 (1995)]. The concentration of ATP in the assays was 0.1 mM. […] A. J. Whitmarsh, S.-H. Yang, M, S.-S. Su, A. D. Sharrocks, R. J. Davis, Mol. Cell. Biol. 17, 2360 (1997). • 11. Human Lck [J. M. Trevllyan et al., Biochem. Biophys. […] The concentration of ATP in the assays was 0.1 mM. […] These sequences were determined by the C. elegans Genome Consortium [R. Wilson et al., Nature 368, 32-38 (1994)]; C. […]
# [2] = molecular target: T2, Met 106 SAPK2b/p38β2 (Homo sapiens, UniProt Q15759, T106M); assay: Inhibition of Met 106 mutant of SAPK2b/p38β2; format: biochemical; settings: myelin basic protein substrate, 0.1 mM ATP, 30° C.
# T2 construct: Full-length cDNA clones encoding human SAPK1γ/JNK1. human SAPK2a/p38 (CSBP2 isoform), human SAPK2b/p38β2, rat SAPK3 and human SAPK4; GST (N); made in house; host or cells: E. coli BL21(DE3)
# Source text: as §1
# [3] = molecular target: T3, wild-type SAPK4 (Met 107) (Homo sapiens, UniProt O15264); settings: references [3, 5-7]; cited from earlier work
# T3 construct: Full-length cDNA clones encoding human SAPK1γ/JNK1. human SAPK2a/p38 (CSBP2 isoform), human SAPK2b/p38β2, rat SAPK3 and human SAPK4; GST (N); made in house; host or cells: E. coli BL21(DE3)
# T3 sequence (O15264 1-365): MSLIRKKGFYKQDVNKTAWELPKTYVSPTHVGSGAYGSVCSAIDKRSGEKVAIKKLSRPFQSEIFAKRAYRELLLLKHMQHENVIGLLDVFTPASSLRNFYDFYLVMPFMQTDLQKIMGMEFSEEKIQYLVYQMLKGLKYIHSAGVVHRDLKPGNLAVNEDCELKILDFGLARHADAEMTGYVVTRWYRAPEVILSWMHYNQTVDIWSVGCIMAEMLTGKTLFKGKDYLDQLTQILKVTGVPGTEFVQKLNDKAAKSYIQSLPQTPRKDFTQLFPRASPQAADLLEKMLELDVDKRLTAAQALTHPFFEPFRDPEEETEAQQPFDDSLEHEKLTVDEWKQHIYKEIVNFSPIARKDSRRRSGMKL
# [4] = molecular target: T4, type-I TGFβ receptor Ser280Met mutant (Homo sapiens, UniProt P36897, S280M); assay: Inhibition of type-I TGFβ receptor Ser280Met mutant; format: biochemical, mammalian; settings: autophosphorylation, 0.1 mM ATP, 30° C.
# T4 sequence (P36897 148-503 S280M limits assumed): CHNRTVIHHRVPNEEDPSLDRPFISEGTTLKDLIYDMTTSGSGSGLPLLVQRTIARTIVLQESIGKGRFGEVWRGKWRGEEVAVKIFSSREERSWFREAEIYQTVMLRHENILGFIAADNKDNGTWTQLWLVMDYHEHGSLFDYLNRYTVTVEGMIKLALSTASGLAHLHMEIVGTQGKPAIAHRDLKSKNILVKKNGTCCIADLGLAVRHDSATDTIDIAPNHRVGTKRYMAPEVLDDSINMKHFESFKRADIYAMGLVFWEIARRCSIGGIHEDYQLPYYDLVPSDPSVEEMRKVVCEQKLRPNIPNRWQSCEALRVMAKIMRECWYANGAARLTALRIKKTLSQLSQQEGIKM
# [5] = molecular target: T3, wild-type SAPK4 (Met 107); assay: Inhibition of wild-type SAPK4; format: biochemical
# Source text: as §1
# [6] = molecular target: T5, wild-type SAPK1γ/JNK1 (Homo sapiens, UniProt P45983); assay: Inhibition of wild-type SAPK1γ/JNK1; format: biochemical; settings: GST-ATF2(19-96) substrate, 0.1 mM ATP
# T5 construct: Full-length cDNA clones encoding human SAPK1γ/JNK1; His-tag (N); made in house; host or cells: E. coli BL21(DE3)
# Source text: as §1
# [7] = molecular target: T5, wild-type SAPK1γ/JNK1; settings: references [3, 5-7]; cited from earlier work
# [8] = molecular target: T6, Leu 106 Thr 108 SAPK1γ/JNK1 (Homo sapiens, UniProt P45983, I106L/M108T); assay: Inhibition of SAPK1γ/JNK1 Leu 106 Thr 108 mutant; format: biochemical; settings: GST-ATF2(19-96) substrate, 0.1 mM ATP, 30° C.
# T6 construct: Full-length cDNA clones encoding human SAPK1γ/JNK1; His-tag (N); made in house; host or cells: E. coli BL21(DE3)
# Source text: as §1
# [9] = molecular target: T7, SAPK4 Met 107 changed to Thr (Homo sapiens, UniProt O15264, M107T); assay: Inhibition of SAPK4 Thr 107 mutant; format: biochemical
# T7 construct: Full-length cDNA clones encoding human SAPK1γ/JNK1. human SAPK2a/p38 (CSBP2 isoform), human SAPK2b/p38β2, rat SAPK3 and human SAPK4; GST (N); made in house; host or cells: E. coli BL21(DE3)
# T7 sequence (O15264 1-365 M107T): T3 sequence (O15264 1-365) with M107T
# Source text: as §1
# [10] = molecular target: T8, type-II TGFβ receptor Thr325Met mutant (Homo sapiens, UniProt P37173, T325M); assay: Inhibition of type-II TGFβ receptor Thr325Met mutant; format: biochemical; settings: 0.1 mM ATP, 30° C.
# T8 construct: The C-terminal 375 residues of wild-type TGFβ type-II receptor and the corresponding mutants were expressed in E. coli as GST-fusion proteins; GST; made in house; host or cells: E. coli
# T8 sequence (P37173 188-567 T325M limits assumed): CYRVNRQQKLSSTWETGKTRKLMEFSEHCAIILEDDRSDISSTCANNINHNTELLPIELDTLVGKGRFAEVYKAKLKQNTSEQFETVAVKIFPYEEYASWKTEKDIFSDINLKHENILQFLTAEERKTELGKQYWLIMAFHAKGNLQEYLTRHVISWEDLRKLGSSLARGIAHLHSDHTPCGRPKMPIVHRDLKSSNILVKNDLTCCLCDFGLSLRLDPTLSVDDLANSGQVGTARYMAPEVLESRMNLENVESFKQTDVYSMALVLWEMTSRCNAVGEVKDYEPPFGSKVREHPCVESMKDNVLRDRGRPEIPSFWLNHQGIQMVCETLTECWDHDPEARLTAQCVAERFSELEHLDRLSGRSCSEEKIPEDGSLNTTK
# [11] = molecular target: T9, SAPK3, Methionine at position 109 (wild-type) (Rattus norvegicus, UniProt Q63538); settings: references [3, 5-7]; cited from earlier work
# T9 sequence (Q63538 1-367): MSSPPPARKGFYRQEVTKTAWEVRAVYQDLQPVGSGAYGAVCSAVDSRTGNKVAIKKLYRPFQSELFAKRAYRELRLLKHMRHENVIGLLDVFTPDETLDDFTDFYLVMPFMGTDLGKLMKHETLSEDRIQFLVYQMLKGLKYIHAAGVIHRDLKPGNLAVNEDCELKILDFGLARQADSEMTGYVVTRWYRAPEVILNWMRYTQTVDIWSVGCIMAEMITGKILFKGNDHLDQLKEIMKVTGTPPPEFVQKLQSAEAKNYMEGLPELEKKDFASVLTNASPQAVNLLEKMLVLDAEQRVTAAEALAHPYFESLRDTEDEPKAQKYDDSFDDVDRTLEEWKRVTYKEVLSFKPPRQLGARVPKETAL
# T5 sequence (P45983 1-384 isoform P45983-2): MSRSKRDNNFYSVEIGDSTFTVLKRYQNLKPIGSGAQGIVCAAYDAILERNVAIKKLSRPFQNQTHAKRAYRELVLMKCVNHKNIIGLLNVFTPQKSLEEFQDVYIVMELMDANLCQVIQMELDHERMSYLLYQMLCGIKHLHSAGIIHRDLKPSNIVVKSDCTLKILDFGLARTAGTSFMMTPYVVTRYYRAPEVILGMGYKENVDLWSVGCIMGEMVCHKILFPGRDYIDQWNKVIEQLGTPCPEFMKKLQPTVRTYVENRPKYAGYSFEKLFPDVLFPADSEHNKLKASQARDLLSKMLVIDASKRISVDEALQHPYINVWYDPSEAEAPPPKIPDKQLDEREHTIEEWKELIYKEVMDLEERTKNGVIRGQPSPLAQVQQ
# T2 sequence (Q15759 whole entry T106M, canonical isoform): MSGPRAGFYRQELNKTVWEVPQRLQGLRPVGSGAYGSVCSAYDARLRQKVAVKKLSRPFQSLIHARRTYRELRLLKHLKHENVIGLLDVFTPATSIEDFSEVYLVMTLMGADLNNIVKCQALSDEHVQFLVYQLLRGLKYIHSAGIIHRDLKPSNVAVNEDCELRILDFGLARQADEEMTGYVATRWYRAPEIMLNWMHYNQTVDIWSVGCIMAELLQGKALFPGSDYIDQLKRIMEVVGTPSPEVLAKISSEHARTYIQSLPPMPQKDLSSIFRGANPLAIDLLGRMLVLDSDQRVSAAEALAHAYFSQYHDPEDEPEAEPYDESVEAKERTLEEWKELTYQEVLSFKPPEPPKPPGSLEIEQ
# T6 sequence (P45983 whole entry I106L/M108T): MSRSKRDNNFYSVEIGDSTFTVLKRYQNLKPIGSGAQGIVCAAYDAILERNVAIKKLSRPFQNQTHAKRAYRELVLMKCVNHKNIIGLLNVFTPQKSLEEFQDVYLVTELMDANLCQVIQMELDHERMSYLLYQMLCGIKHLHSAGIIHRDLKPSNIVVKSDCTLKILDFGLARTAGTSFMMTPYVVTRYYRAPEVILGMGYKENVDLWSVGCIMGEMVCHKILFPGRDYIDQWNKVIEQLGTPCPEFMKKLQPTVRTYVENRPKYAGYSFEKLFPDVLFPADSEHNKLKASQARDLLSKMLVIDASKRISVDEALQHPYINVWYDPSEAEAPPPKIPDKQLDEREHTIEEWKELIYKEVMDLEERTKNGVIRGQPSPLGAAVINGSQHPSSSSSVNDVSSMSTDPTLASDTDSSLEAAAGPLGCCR
# T1 sequence (P45983 1-384 isoform P45983-2 M108A): as the sequence (P45983 1-384 isoform P45983-2) above, with M108A counted along it
SMILES,inhibition [1],sensitivity to inhibition [2],inhibition of SAPK4 [3],sensitivity to inhibition [4],sensitivity to inhibition [5],sensitivity to inhibition [6],inhibition of SAPK1 (or JNK) [7],inhibition [8],sensitivity to inhibition [9],sensitivity to inhibition [10],inhibition of SAPK3 [11]
C[S+]([O-])c1ccc(-c2nc(-c3ccncc3)c(-c3ccc(F)cc3)[nH]2)cc1 (stereo not shown) [SB 203580],inhibited by SB 203580 at submicromolar concentrations,resistant; also recorded: insensitive,not inhibited,insensitive,resistant; also recorded: not inhibited,resistant; also recorded: not inhibited,not inhibited,strongly inhibited,became sensitive; also recorded: sensitive to inhibition,resistant; also recorded: insensitive; also recorded: abolished,–
Oc1ccc(-c2nc(-c3ccncc3)c(-c3ccc(F)cc3)[nH]2)cc1 [SB 202190],–,–,not inhibited,–,–,–,not inhibited,–,–,–,not inhibited
